{"source": "PubChem BioAssay (NCI)", "experiment_in_all_cases": "DTP human tumour cell line panel, 48 h", "key": {"786-0 renal": {"test_system": "786-0 renal"}, "A549 NSCLC": {"test_system": "A549 NSCLC"}, "ACHN renal": {"test_system": "ACHN renal"}, "BT-549 breast": {"test_system": "BT-549 breast"}, "CAKI-1 renal": {"test_system": "CAKI-1 renal"}, "CCRF-CEM leukemia": {"test_system": "CCRF-CEM leukemia"}, "COLO 205 colon": {"test_system": "COLO 205 colon"}, "DU-145 prostate": {"test_system": "DU-145 prostate"}, "EKVX NSCLC": {"test_system": "EKVX NSCLC"}, "HCC-2998 colon": {"test_system": "HCC-2998 colon"}, "HCT-116 colon": {"test_system": "HCT-116 colon"}, "HCT-15 colon": {"test_system": "HCT-15 colon"}, "HL-60(TB) leukemia": {"test_system": "HL-60(TB) leukemia"}, "HOP-92 NSCLC": {"test_system": "HOP-92 NSCLC"}, "HS 578T breast": {"test_system": "HS 578T breast"}, "HT29 colon": {"test_system": "HT29 colon"}, "IGROV1 ovarian": {"test_system": "IGROV1 ovarian"}, "K-562 leukemia": {"test_system": "K-562 leukemia"}, "KM12 colon": {"test_system": "KM12 colon"}, "LOX IMVI melanoma": {"test_system": "LOX IMVI melanoma"}, "M14 melanoma": {"test_system": "M14 melanoma"}, "MALME-3M melanoma": {"test_system": "MALME-3M melanoma"}, "MCF7 breast": {"test_system": "MCF7 breast"}, "MDA-MB-231 breast": {"test_system": "MDA-MB-231 breast"}, "MDA-MB-435": {"test_system": "MDA-MB-435"}, "MDA-N": {"test_system": "MDA-N"}, "MOLT-4 leukemia": {"test_system": "MOLT-4 leukemia"}, "NCI-H226 lung": {"test_system": "NCI-H226 lung"}, "NCI-H23 lung": {"test_system": "NCI-H23 lung"}, "NCI-H460 lung": {"test_system": "NCI-H460 lung"}, "NCI-H522 lung": {"test_system": "NCI-H522 lung"}, "NCI/ADR-RES ovarian": {"test_system": "NCI/ADR-RES ovarian"}, "OVCAR-3 ovarian": {"test_system": "OVCAR-3 ovarian"}, "OVCAR-4 ovarian": {"test_system": "OVCAR-4 ovarian"}, "OVCAR-5 ovarian": {"test_system": "OVCAR-5 ovarian"}, "OVCAR-8 ovarian": {"test_system": "OVCAR-8 ovarian"}, "PC-3 prostate": {"test_system": "PC-3 prostate"}, "RPMI-8226 leukemia": {"test_system": "RPMI-8226 leukemia"}, "SF-268 CNS": {"test_system": "SF-268 CNS"}, "SF-295 CNS": {"test_system": "SF-295 CNS"}, "SF-539 CNS": {"test_system": "SF-539 CNS"}, "SK-MEL-2 melanoma": {"test_system": "SK-MEL-2 melanoma"}, "SK-MEL-28 melanoma": {"test_system": "SK-MEL-28 melanoma"}, "SK-MEL-5 melanoma": {"test_system": "SK-MEL-5 melanoma"}, "SK-OV-3 ovarian": {"test_system": "SK-OV-3 ovarian"}, "SN12C renal": {"test_system": "SN12C renal"}, "SNB-19 CNS": {"test_system": "SNB-19 CNS"}, "SNB-75 CNS": {"test_system": "SNB-75 CNS"}, "SR leukemia": {"test_system": "SR leukemia"}, "SW-620 colon": {"test_system": "SW-620 colon"}, "T-47D breast": {"test_system": "T-47D breast"}, "TK-10 renal": {"test_system": "TK-10 renal"}, "U251 CNS": {"test_system": "U251 CNS"}, "UACC-257 melanoma": {"test_system": "UACC-257 melanoma"}, "UACC-62 melanoma": {"test_system": "UACC-62 melanoma"}, "UO-31 renal": {"test_system": "UO-31 renal"}}, "note": "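Cells were grown in 96-well plates and exposed to each compound for 48 hours at five concentrations; endpoints were interpolated linearly between bracketing concentrations, or set to the highest concentration if not reached. TGI: total growth inhibition.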", "data": [{"compound": "C/C(=N\\NC(=O)Nc1ccccc1Cl)c1ccc(O)cc1", "values": [{"measurement": "TGI", "setting": "786-0 renal", "result": "> 100", "unit": "µM"}, {"measurement": "TGI", "setting": "A549 NSCLC", "result": "> 100", "unit": "µM"}, {"measurement": "TGI", "setting": "ACHN renal", "result": "> 100", "unit": "µM"}, {"measurement": "TGI", "setting": "BT-549 breast", "result": "> 100", "unit": "µM"}, {"measurement": "TGI", "setting": "CAKI-1 renal", "result": "> 100", "unit": "µM"}, {"measurement": "TGI", "setting": "CCRF-CEM leukemia", "result": "> 100", "unit": "µM"}, {"measurement": "TGI", "setting": "COLO 205 colon", "result": "> 100", "unit": "µM"}, {"measurement": "TGI", "setting": "DU-145 prostate", "result": "> 100", "unit": "µM"}, {"measurement": "TGI", "setting": "EKVX NSCLC", "result": "> 100", "unit": "µM"}, {"measurement": "TGI", "setting": "HCC-2998 colon", "result": "> 100", "unit": "µM"}, {"measurement": "TGI", "setting": "HCT-116 colon", "result": "> 100", "unit": "µM"}, {"measurement": "TGI", "setting": "HCT-15 colon", "result": "> 100", "unit": "µM"}, {"measurement": "TGI", "setting": "HL-60(TB) leukemia", "result": "> 100", "unit": "µM"}, {"measurement": "TGI", "setting": "HOP-92 NSCLC", "result": "> 100", "unit": "µM"}, {"measurement": "TGI", "setting": "HS 578T breast", "result": "> 100", "unit": "µM"}, {"measurement": "TGI", "setting": "HT29 colon", "result": "> 100", "unit": "µM"}, {"measurement": "TGI", "setting": "IGROV1 ovarian", "result": "> 100", "unit": "µM"}, {"measurement": "TGI", "setting": "K-562 leukemia", "result": "> 100", "unit": "µM"}, {"measurement": "TGI", "setting": "KM12 colon", "result": "> 100", "unit": "µM"}, {"measurement": "TGI", "setting": "LOX IMVI melanoma", "result": "> 100", "unit": "µM"}, {"measurement": "TGI", "setting": "M14 melanoma", "result": "> 100", "unit": "µM"}, {"measurement": "TGI", "setting": "MALME-3M melanoma", "result": "> 100", "unit": "µM"}, {"measurement": "TGI", "setting": "MCF7 breast", "result": "> 100", "unit": "µM"}, {"measurement": "TGI", "setting": "MDA-MB-231 breast", "result": "> 100", "unit": "µM"}, {"measurement": "TGI", "setting": "MDA-MB-435", "result": "> 100", "unit": "µM"}, {"measurement": "TGI", "setting": "MDA-N", "result": "> 100", "unit": "µM"}, {"measurement": "TGI", "setting": "MOLT-4 leukemia", "result": "> 100", "unit": "µM"}, {"measurement": "TGI", "setting": "NCI-H226 lung", "result": "> 100", "unit": "µM"}, {"measurement": "TGI", "setting": "NCI-H23 lung", "result": "> 100", "unit": "µM"}, {"measurement": "TGI", "setting": "NCI-H460 lung", "result": "> 100", "unit": "µM"}, {"measurement": "TGI", "setting": "NCI-H522 lung", "result": "> 100", "unit": "µM"}, {"measurement": "TGI", "setting": "NCI/ADR-RES ovarian", "result": "> 100", "unit": "µM"}, {"measurement": "TGI", "setting": "OVCAR-3 ovarian", "result": "> 100", "unit": "µM"}, {"measurement": "TGI", "setting": "OVCAR-4 ovarian", "result": "> 100", "unit": "µM"}, {"measurement": "TGI", "setting": "OVCAR-5 ovarian", "result": "> 100", "unit": "µM"}, {"measurement": "TGI", "setting": "OVCAR-8 ovarian", "result": "> 100", "unit": "µM"}, {"measurement": "TGI", "setting": "PC-3 prostate", "result": "> 100", "unit": "µM"}, {"measurement": "TGI", "setting": "RPMI-8226 leukemia", "result": "> 100", "unit": "µM"}, {"measurement": "TGI", "setting": "SF-268 CNS", "result": "> 100", "unit": "µM"}, {"measurement": "TGI", "setting": "SF-295 CNS", "result": "> 100", "unit": "µM"}, {"measurement": "TGI", "setting": "SF-539 CNS", "result": "> 100", "unit": "µM"}, {"measurement": "TGI", "setting": "SK-MEL-2 melanoma", "result": "> 100", "unit": "µM"}, {"measurement": "TGI", "setting": "SK-MEL-28 melanoma", "result": "> 100", "unit": "µM"}, {"measurement": "TGI", "setting": "SK-MEL-5 melanoma", "result": "> 100", "unit": "µM"}, {"measurement": "TGI", "setting": "SK-OV-3 ovarian", "result": "> 100", "unit": "µM"}, {"measurement": "TGI", "setting": "SN12C renal", "result": "> 100", "unit": "µM"}, {"measurement": "TGI", "setting": "SNB-19 CNS", "result": "> 100", "unit": "µM"}, {"measurement": "TGI", "setting": "SNB-75 CNS", "result": 75.8, "unit": "µM"}, {"measurement": "TGI", "setting": "SR leukemia", "result": "> 100", "unit": "µM"}, {"measurement": "TGI", "setting": "SW-620 colon", "result": "> 100", "unit": "µM"}, {"measurement": "TGI", "setting": "T-47D breast", "result": "> 100", "unit": "µM"}, {"measurement": "TGI", "setting": "TK-10 renal", "result": "> 100", "unit": "µM"}, {"measurement": "TGI", "setting": "U251 CNS", "result": "> 100", "unit": "µM"}, {"measurement": "TGI", "setting": "UACC-257 melanoma", "result": "> 100", "unit": "µM"}, {"measurement": "TGI", "setting": "UACC-62 melanoma", "result": "> 100", "unit": "µM"}, {"measurement": "TGI", "setting": "UO-31 renal", "result": "> 100", "unit": "µM"}]}]}
